Assay results taken from PMC5717258, “Bioaccumulation of pharmaceuticals and personal care product chemicals in fish exposed to wastewater effluent in an urban wetland” (Scientific Reports, 2017).
Read-outs that look alike come from different tables or passages of the source. Values belong to the molecule of their own block, whether it stands above or below them.

Experiments:
in vivo = conditions: goldfish (Carassius auratus), in vivo, plasma concentration
Source text: Cages were visited weekly, and fish (13/cage) were fed during the visits (20 g/cage). All animal experiments were in accordance with CCAC guidance and approved by the GLLFAS-WSTD Animal Care Committee (Government of Canada). Further details on the caging and preparation of the fish and animal care protocols are provided in Simmons et al.[32]. […] A fourth site, Jordan Harbour (JH), a widening of 20 Mile Creek adjacent to Lake Ontario near Jordan ON, served as a reference site. Mass and fork length were measured and recorded. Plasma collection and storage is described in the SI. Plasma of caged goldfish was divided for proteome, metabolome and PPCP analysis. Due to limited volumes, pooled samples of plasma from 25 individual fish (50 µL/individual) was pooled to yield one sample from at each location for PPCP analysis.
(§1) A total of 20 fish plasma samples from the pooled caged fish (7) and the wild fish (13) along with 12 water samples were selected for analysis. […] A full list of analytes is provided in Supplementary Information. Mass labelled^13C-, or deuterated surrogate internal standards were used for quantification of all analytes via the isotope dilution/surrogate standard quantitation method. Prior to extraction and/or clean-up procedures, aqueous samples were adjusted to pH 2.0, spiked with extraction surrogate standards, then adjusted to pH 4 using tetrasodium ethylenediamine-tetraacetate dihydrate. Plasma samples (2.3–2.5 g) were spiked with extraction surrogate standards, sonicated with 20 mL acetonitrile, then diluted with ultra-pure water to 200 mL. The extracts were cleaned up by solid phase extraction using Oasis HLB cartridges (Waters Ltd. Mississauga ON), filtered, and analyzed by liquid chromatography-electrospray ionization-tandem mass spectrometry (LC/ESI-MS/MS) in positive or negative ionization mode. The analysis of the complete list of analytes (SI Table S1) required a total of five instrumental runs.
(§2) Quality assurance steps included analysis of lab blanks for water and plasma along with matrix recovery spikes. […] Detection limits (DLs) were defined as lowest calibration level adjusted to the maximal sample size or 3 times the signal of the noise in the target channel converted to an equivalent sample, whichever was greater. […] Where analytes were detected in two or more samples of the same species or series of water samples, non-detect values were converted to ½ the DL value for reporting purposes.

[1] = for plasma concentration, CPM-C 01: Cootes carp 01, 2011, male
Procedure: (§3) Plasma from 9 individual male fish (500 µL/individual) was pooled to yield 3 samples for PPCP analysis. […] Plasma from 6 individual carp (2.3–3.5 g) from each location was selected for PPCP analysis. […] Plasma samples were frozen (−80 °C) until analysis.
as §1, §2

[2] = Procedure: as §3, §1
[3] = parameters: method as in US EPA Chemistry Dashboard; conditions: ref US EPA Chemistry Dashboard; cited from earlier work
[4] = human; converted from µg/mL; ref Schulz et al.[56]; cited from earlier work
[5] = ref Meador et al. 18; cited from earlier work
[6] = ref Meador et al. 18; cited from earlier work; remark: listed apart in the source
[7] = female, carp (Cyprinus carpio), in vivo
[8] = male, carp (Cyprinus carpio), in vivo
[9] = male, goldfish (Carassius auratus), in vivo
[10] = Cootes carp 2, Sep 27, 2011, male, wet weight
[11] = Cootes carp 10, Sep 28, 2011, female, wet weight
[12] = Cootes carp 13, Sep 28, 2011, female, wet weight
[13] = Cootes carp 20, 2011, male, wet weight
[14] = Cootes carp 36, Oct 3, 2011, female, wet weight
[15] = Jordan Harbour brown bullhead, wet weight
[16] = Jordan Harbour carp 75, Nov 7, 2011, female, wet weight

concentration at 21 days (in vivo; CPM1 caged): 100 ng/g
concentration at 21 days (in vivo; CPM2 caged): 107 ng/g
concentration at 21 days (in vivo; CPM3 caged): 113 ng/g
concentration at 21 days (in vivo; JH caged): 92.4 ng/g
plasma concentration, CPM-C 10 [1, 7]: 764 ng/g
plasma concentration, CPM-C 13 [1, 7]: 1010 ng/g
plasma concentration, CPM-C 36 [1, 7]: 875 ng/g
plasma concentration, JH-C 73 [1, 7]: 456 ng/g
plasma concentration, JH-C 75 [1, 7]: 1440 ng/g
plasma concentration, CPM-C 2 [1, 8]: 1010 ng/g
plasma concentration, CPM-C 20 [1, 8]: 210 ng/g
plasma concentration, JH-C 54 [1, 8]: 232 ng/g
plasma concentration, JH-C 74 [1, 8]: 242 ng/g
plasma concentration, JH-C 78 [1, 8]: 522 ng/g
plasma concentration, CPM wild-01 [1, 9]: 129 ng/g
plasma concentration, CPM wild-02 [1, 9]: 134 ng/g
plasma concentration, CPM wild-03 [1, 9]: 118 ng/g
plasma concentration, JH-BB ([2]; Brown Bullhead (Ameiurus nebulosus), in vivo): 187 ng/g
SMILES: C[C@]12CCC(=O)C=C1CC[C@@H]1[C@@H]2[C@@H](O)C[C@@]2(C)[C@H]1CC[C@]2(O)C(=O)CO [Hydrocortisone]

concentration at 21 days (in vivo; CPM1 caged, CPM1, 07-2014, pooled plasma, wet weight): 0.879 ng/g
concentration at 21 days (in vivo; CPM2 caged, CPM2, 07-2014, pooled plasma, wet weight): 0.58 ng/g
concentration at 21 days (in vivo; CPM3 caged, CPM3, 07-2014, pooled plasma, wet weight): 0.168 ng/g
concentration at 21 days (in vivo; JH caged, Jordan Harbour reference site, 07-2014, pooled plasma, wet weight): < 0.413 ng/g
plasma concentration, CPM-C 01 ([1]; wet weight): 0.338 ng/g
plasma concentration, CPM-C 2 [1, 10]: 0.216 ng/g
plasma concentration, CPM-C 10 [1, 11]: 0.227 ng/g
plasma concentration, CPM-C 13 [1, 12]: 0.234 ng/g
plasma concentration, CPM-C 20 [1, 13]: 0.179 ng/g
plasma concentration, CPM-C 36 [1, 14]: 0.215 ng/g
Carp plasma concentration, this study (range) ([1]; Table S7): 0.18 to 0.34 ng/g
Goldfish plasma concentration, this study (range) ([1]; Table S7): 0.17 to 1.1 ng/g
plasma concentration, CPM wild-01 ([1]; wild goldfish sample 01, 2012, wet weight): 0.300 ng/g
plasma concentration, CPM wild-02 ([1]; wild goldfish sample 02, 2012, wet weight): 0.654 ng/g
plasma concentration, CPM wild-03 ([1]; wild goldfish sample 03, 2012, wet weight): 1.1 ng/g
plasma concentration, JH-BB [2, 15]: < 0.57 ng/g
SMILES: NCCC(Oc1ccc(C(F)(F)F)cc1)c1ccccc1 (centres unmarked) [Norfluoxetine]

SMILES: CC(C(=O)O)c1ccc(CC(C)(C)O)cc1 (centres unmarked) [2-Hydroxy-ibuprofen]
plasma concentration, CPM-C 01 ([1]; wet weight): < 16.9 ng/g
plasma concentration, CPM-C 2 [1, 10]: < 23 ng/g
plasma concentration, CPM-C 10 [1, 11]: < 24.2 ng/g
plasma concentration, CPM-C 13 [1, 12]: < 24.9 ng/g
plasma concentration, CPM-C 20 [1, 13]: < 17.2 ng/g
plasma concentration, CPM-C 36 [1, 14]: < 22.9 ng/g
plasma concentration, JH-C 54 ([1]; Jordan Harbour carp 54, Nov 7, 2011, male, wet weight): < 16.9 ng/g
plasma concentration, JH-C 73 ([1]; Jordan Harbour carp 73, Nov 7, 2011, female, wet weight): < 16.5 ng/g
plasma concentration, JH-C 74 ([1]; Jordan Harbour carp 74, Nov 7, 2011, male, wet weight): < 17 ng/g
plasma concentration, JH-C 75 [1, 16]: < 24.1 ng/g
plasma concentration, JH-C 78 ([1]; Jordan Harbour carp 78, Nov 7, 2011, male, wet weight): < 38.5 ng/g
plasma concentration, JH-C 82 ([1]; Jordan Harbour carp 82, Nov 7, 2011, female, wet weight): 17 ng/g
plasma concentration, JH-BB [2, 15]: < 30.4 ng/g

Cootes carp plasma, range of concentrations ([1]; Cootes Paradise Marsh, range): 0.42 to 1.23 ng/g
plasma concentration, CPM-C 01 ([1]; wet weight): 0.422 ng/g
plasma concentration, CPM-C 2 [1, 10]: 1.23 ng/g
plasma concentration, CPM-C 10 [1, 11]: 0.605 ng/g
plasma concentration, CPM-C 13 [1, 12]: 0.625 ng/g
plasma concentration, CPM-C 20 [1, 13]: 0.431 ng/g
plasma concentration, CPM-C 36 [1, 14]: 0.570 ng/g
plasma concentration, JH-C 75 [1, 16]: < 1.2 ng/g
Carp plasma concentration, this study (range) ([1]; Table S7): 0.42 to 1.23 ng/g
plasma concentration, carp, this study (mean) ([1]; Table S8): 0.65 ng/g wet weight or ng/mL for plasma
plasma concentration, goldfish, this study (mean) ([1]; Table S8): < mdl
SMILES: CCCCC(=O)N(Cc1ccc(-c2ccccc2-c2nnn[nH]2)cc1)[C@H](C(=O)O)C(C)C [Valsartan]
log Kow [3]: 3.07
Therapeutic "normal" blood-plasma/serum concentration [4]: ~800 to 6000 ng/mL
whole fish concentration, salmon [5]: < mdl
whole fish concentration, sculpin [6]: < mdl
